Reference: ChEMBL document CHEMBL3301361, “Experimental in vitro DMPK and physicochemical data on a set of publicly disclosed compounds”
Converted amounts (≈) assume the structure as drawn.

Test: physchem
Settings: pH 7.4 buffer

Structure (SMILES) | solubility thermodynamic
COc1ccc(/C=C\c2cc(OC)c(OC)c(OC)c2)cc1O [COMBRETASTATIN A4] | 144 µM (≈ 45.7 µg/mL)
CN(c1ccc(Cl)c(CO)c1)c1ccnc(Nc2cc(N3CCOCC3)cc(N3CCOCC3)c2)n1 | 3.1 µM (≈ 1.58 µg/mL)
CS(=O)(=O)C1(c2cc(N3CCOCC3)nc(-c3cccc(N)c3)n2)CC1 | 13.2 µM (≈ 4.94 µg/mL)
COc1cc(N2CCN(C(=O)[C@@H]3CCCC[C@H]3C(=O)NC3(C#N)CC3)[C@H](C)C2)ccc1C1CC1 | 204 µM (≈ 94.9 µg/mL)
COc1ccc(N2CCN(C(=O)[C@@H]3CCCC[C@H]3C(=O)NCC#N)CC2)cc1 | 389 µM (≈ 150 µg/mL)
CC(C)C(NC(=O)c1cnoc1C(C)(C)C)C(=O)c1ccc(C#N)cc1 (centres undefined) | 20 µM (≈ 7.07 µg/mL)
CS(=O)(=O)C1(c2cc(N3CCOCC3)nc(-c3cccc4[nH]ccc34)n2)CCOCC1 | 1.8 µM (≈ 0.797 µg/mL)
Cc1cccc(-c2ccc3c(c2)c(C(=O)C(=O)O)cn3Cc2ccc(C(C)(C)C)cc2)c1 [ALEPLASININ] | 363 µM (≈ 155 µg/mL)
Cc1cc(C)cc(-c2[nH]c3sc(C(C)(C)C(=O)N4C5CCC4CC5)cc3c2C(=O)CN2CCC(C(=O)N3CCOCC3)CC2)c1 | 72.4 µM (≈ 45.7 µg/mL)
COc1ccc2c(Oc3ccc(CC(=O)Nc4cc(C)cc(CN(C)C)c4)c(OC)c3)ccnc2c1 | 1.8 µM (≈ 0.874 µg/mL)
N=C(N)Nc1nc(-c2cccc(O)c2)cs1 | 79.4 µM (≈ 18.6 µg/mL)
CS(=O)(=O)c1ccc2c3c([nH]c2c1)CCN(C(=O)[C@@H]1CCCC[C@H]1C(=O)NC1(C#N)CC1)C3 | 912 µM (≈ 427 µg/mL)
Cn1cncc1[C@@](N)(c1ccc(Cl)cc1)c1ccc2c(c1)c(-c1cccc(Cl)c1)cc(=O)n2C [TIPIFARNIB] | 9.5 µM (≈ 4.65 µg/mL)
COc1cc(N2CCOCC2)ccc1Nc1ncc(Cl)c(-c2cnc3ccccn23)n1 | 16.2 µM (≈ 7.08 µg/mL)
N#CC1(NC(=O)[C@@H]2CCCC[C@H]2C(=O)N2CCc3[nH]c4ccc(C(F)(F)F)cc4c3C2)CC1 | 74.1 µM (≈ 34 µg/mL)
Cc1ccc(C)c(N(C)c2ccnc(Nc3cc(N4CCOCC4)cc(N4CCOCC4)c3)n2)c1 | 5.9 µM (≈ 2.8 µg/mL)
CC(C)(C)[C@@H](C#N)NC(=O)[C@@H]1CCCC[C@H]1C(=O)N1CCc2[nH]c3ccc(F)cc3c2C1 | 74.1 µM (≈ 32.5 µg/mL)
COc1cc(C2CCNCC2)ccc1Nc1ncc(Cl)c(-c2cnc3ccccn23)n1 | 44.7 µM (≈ 19.4 µg/mL)
CCn1cc(NC(=O)Cc2ccc(Oc3ccnc4cc(OC)c(OC)cc34)cn2)cn1 | 15.8 µM (≈ 6.85 µg/mL)
CNC(=O)c1c(-c2ccc(F)cc2)oc2cc(N(CCO)S(C)(=O)=O)c(C3CC3)cc12 [NESBUVIR] | 60.3 µM (≈ 26.9 µg/mL)
CCN1C(=O)C(C)(C)c2cc3[nH]c4c(c3cc21)CCCc1c-4n[nH]c1C | 0.7 µM (≈ 0.244 µg/mL)

Structure (SMILES) | solubility thermodynamic
COc1cc2nccc(Oc3ccc(NC(=O)Nc4cc(C)on4)c(Cl)c3)c2cc1OC [TIVOZANIB] | 9.3 µM (≈ 4.23 µg/mL)
O=C(O)c1cc2ccccc2n1Cc1cccc(Cl)c1 | 1200 µM (≈ 344 µg/mL)
CNC(=O)[C@@H](NC(=O)[C@H](CC(C)C)[C@H](Sc1ccc(OC)c(OC)c1)C(=O)NO)C(C)(C)C | 1290 µM (≈ 623 µg/mL)
O=C(c1ccc(F)cc1)C1CCN(C(=O)c2cc(F)cc(F)c2)CC1 | 6 µM (≈ 2.08 µg/mL)
O=C(Nc1ccc(N2CCOCC2)nc1)c1nnc(Nc2ccc(Cl)cc2)o1 | 1 µM (≈ 0.401 µg/mL)
COc1cc2ncnc(Nc3ccc(Br)cc3F)c2cc1OC | 6.8 µM (≈ 2.57 µg/mL)
COc1cc2ncnc(Nc3cccc(Cl)c3F)c2cc1CN(C)C1(C(N)=O)CCN(C(C)C)CC1 | 550 µM (≈ 283 µg/mL)
CC(C)c1cc(C(=O)N[C@@H](Cc2cccc(Cl)c2)C(=O)NCC#N)n(C)n1 | 47.9 µM (≈ 18.6 µg/mL)
COc1cc2ncnc(Nc3cccc(Cl)c3F)c2cc1CN(C)C1(C(N)=O)CN(C(C)C)C1 | 25.7 µM (≈ 12.5 µg/mL)
COc1cc(OC)cc(-c2cc3cnc(N)nc3nc2NC(=O)NC(C)(C)C)c1 | 0.4 µM (≈ 0.159 µg/mL)
CC(C)c1ccc2[nH]c3c(c2c1)CN(C(=O)[C@@H]1CCCC[C@H]1C(=O)NC1(C#N)CC1)CC3 | 83.2 µM (≈ 36 µg/mL)
Cc1noc2cc(N3CCN(C(=O)[C@@H]4CCCC[C@H]4C(=O)NC4(C#N)CC4)[C@H](C)C3)ccc12 | 603 µM (≈ 271 µg/mL)
CN1CCN(CCCOc2cc(OC3CCOCC3)c3c(Nc4ccc(F)c(Cl)c4)ncnc3c2)CC1 | 38 µM (≈ 20.1 µg/mL)
CC(C)Cc1nc(-c2ccccc2)c(-c2ccc(CN3CCC(n4c(=O)[nH]c5ccccc54)CC3)cc2)nc1O | 1.6 µM (≈ 0.854 µg/mL)
COCCN(Cc1cc2c(Nc3cccc(Cl)c3F)ncnc2cc1OC)[C@@H](C)C(N)=O | 166 µM (≈ 76.7 µg/mL)
COc1cc2ncnc(Nc3cccc(Cl)c3F)c2cc1CN1CC[C@H](C(N)=O)C1 | 77.6 µM (≈ 33.4 µg/mL)
O=C(O)[C@H](Cc1cccc(F)c1)N1CCC(CN2CCC(Oc3ccc(Cl)c(Cl)c3)CC2)CC1 | 417 µM (≈ 212 µg/mL)
CNC(=O)[C@@H](C)N(C)Cc1cc2c(Nc3cccc(Cl)c3F)ncnc2cc1OC | 646 µM (≈ 279 µg/mL)
CCCN(CCO)CCCOc1ccc2c(Nc3cc(CC(=O)Nc4cccc(F)c4)[nH]n3)ncnc2c1 | 112 µM (≈ 58.5 µg/mL)
CCCSc1ncccc1C(=O)NC1CCCCC1 | 81.3 µM (≈ 22.6 µg/mL)
Cc1cc(C)cc(-c2[nH]c3sc(C(C)(C)C(=O)N4C5CCC4CC5)cc3c2CCN2CCC(CC(=O)N3CCOCC3)CC2)c1 | 1.9 µM (≈ 1.2 µg/mL)

Other lines, results leading:

solubility thermodynamic | Structure (SMILES)
31.6 µM (≈ 15 µg/mL) | C[C@H](Oc1cccc2ncnc(Nc3ccc4c(cnn4Cc4nccs4)c3)c12)C(=O)N(C)C
58.9 µM (≈ 26 µg/mL) | CCN1CCN(Cc2ccc(-c3cc4c(N[C@H](C)c5ccccc5)ncnc4[nH]3)cc2)CC1 [AEE-788]
58.9 µM (≈ 20.1 µg/mL) | COc1cccc(C(=O)N2CCC(C(=O)c3ccc(F)cc3)CC2)c1
4.7 µM (≈ 2.11 µg/mL) | CC(C)(C)OC(=O)N1CCN(c2cnc(OCc3ccc(S(C)(=O)=O)cc3)cn2)CC1
1.6 µM (≈ 0.469 µg/mL) | CCCCOc1ccc(-c2cc(=O)c3ccccc3[nH]2)cc1
22.9 µM (≈ 10.5 µg/mL) | Cc1ccc(Oc2ccc(Nc3ncnc4cccc(O[C@H](C)C(=O)N(C)C)c34)cc2C)cn1
1.7 µM (≈ 0.772 µg/mL) | Cc1cc(CNc2ncc(Br)c(Nc3cc(CCc4ccccc4)[nH]n3)n2)on1
182 µM (≈ 43.7 µg/mL) | O=C(NNC(=O)c1ccccc1)c1ccccc1
11.2 µM (≈ 5.28 µg/mL) | CNC(=O)[C@H](Cc1ccccc1)NC(=O)[C@H](CC(C)C)[C@H](CSc1ccccc1)C(=O)NO
0.2 µM (≈ 0.0927 µg/mL) | CS(=O)(=O)N1CC2(CCN(C(=O)Nc3cnc(-c4ccccc4)cn3)CC2)c2ccccc21
0.9 µM (≈ 0.261 µg/mL) | c1ccc(NCc2ccc(CNc3ccccn3)cc2)nc1
0.9 µM (≈ 0.328 µg/mL) | O=S(=O)(CC(c1ccccc1)N1CCCCC1)c1ccc(Cl)cc1 (centres undefined)
70.8 µM (≈ 33.3 µg/mL) | CCN(C(=O)NCc1cccc(C)c1)C1CCN(CCC(c2ccccc2)c2ccccc2)CC1
1.2 µM (≈ 0.323 µg/mL) | CCOc1ccc(NCC(=O)c2ccc(C)cc2)cc1
18.2 µM (≈ 4.14 µg/mL) | COc1ccc(C(=O)Nc2ccccc2)cc1
28.2 µM (≈ 10.9 µg/mL) | Nc1ccccc1NC(=O)c1ccc(N2CCN(Cc3ccccc3)CC2)cc1
9.1 µM (≈ 4.38 µg/mL) | C=CCN(C(=O)NCc1cccc(C)c1)C1CCN(CCC(c2ccccc2)c2ccccc2)CC1
129 µM (≈ 32.6 µg/mL) | O=C(NNc1nc2ccccc2o1)c1ccccc1
12.9 µM (≈ 4.8 µg/mL) | CS(=O)(=O)Cc1cc(N2CCOCC2)nc(-c2cccc3[nH]ccc23)n1
3.1 µM (≈ 0.996 µg/mL) | Nc1ncc(-c2cnn(CCO)c2)cc1-c1nc2ccccc2o1
2.7 µM (≈ 0.968 µg/mL) | CNS(=O)(=O)c1ccc(Nc2nccc(-c3cnc(C)n3C)n2)cc1
295 µM (≈ 160 µg/mL) | O=C(N[C@@H](Cc1ccc(OCCc2cccc(NC3CCCC3)n2)cc1)C(=O)O)c1c(Cl)cccc1Cl
2 µM (≈ 0.891 µg/mL) | COc1cccc(NC(=O)Cc2ccc(Oc3ncnc4cc(OC)c(OC)cc34)cc2)c1
4.4 µM (≈ 1.8 µg/mL) | Cn1cc(C2=C(c3cccc(NCC(O)CO)c3)C(=O)NC2=O)c2cc(F)ccc21 (centres undefined)
1350 µM (≈ 530 µg/mL) | Nc1ccccc1NC(=O)c1ccc(-c2ncc(CN3CCC3)cc2Cl)cc1
1350 µM (≈ 288 µg/mL) | O=C(Nc1ccccc1)Nc1ccncc1

solubility thermodynamic | Structure (SMILES)
1510 µM (≈ 709 µg/mL) | Cc1nc(-c2c(C)n(Cc3c(F)cccc3F)c(=O)n(C[C@H](N)c3ccccc3)c2=O)cs1
83.2 µM (≈ 35.2 µg/mL) | CNC(=O)[C@@H](NC(=O)[C@H](CC(C)C)[C@@H](Sc1ccccc1)C(=O)NO)C(C)(C)C
794 µM (≈ 186 µg/mL) | O=S(=O)(Nc1ccncc1)c1ccccc1
170 µM (≈ 54.7 µg/mL) | CCn1cnc(-c2ccccc2)c1-c1nc2c(N)ncnc2s1
676 µM (≈ 154 µg/mL) | COc1ccc(NC(=O)c2ccccn2)cc1
6.5 µM (≈ 2.38 µg/mL) | NS(=O)(=O)c1ccc(Nc2nccc(-c3cnc4ccccn34)n2)cc1
1020 µM (≈ 370 µg/mL) | O=C(O)COc1ccc(OCCNC[C@H](O)COc2ccccc2)cc1
7.4 µM (≈ 3.2 µg/mL) | CCc1c[nH]nc1NC(=O)Cc1ccc(Oc2ccnc3cc(OC)ccc23)cc1OC
0.5 µM (≈ 0.145 µg/mL) | Cc1ccc(Nc2nc(C)nc3c2oc2ccccc23)cc1
10.7 µM (≈ 4.63 µg/mL) | COc1ccc2c(Oc3ccc(CC(=O)Nc4cnn(C)c4C)c(OC)c3)ccnc2c1
5.8 µM (≈ 2.06 µg/mL) | CCOc1ccccc1C(=O)N1CCC(C(=O)c2ccc(F)cc2)CC1
7.8 µM (≈ 3.18 µg/mL) | CCc1cc(OCc2ccc(-c3ccccc3-c3nnn[nH]3)cc2)c2ccccc2n1
0.9 µM (≈ 0.46 µg/mL) | COc1cc2c(Nc3ccc(Oc4ccccc4)cc3)c(C#N)cnc2cc1OCCCN1CCOCC1
81.3 µM (≈ 34.4 µg/mL) | COc1cc(OC2CNC2)ccc1Nc1ncc(Cl)c(-c2cnc3ccccn23)n1
1260 µM (≈ 202 µg/mL) | Oc1ccc(-n2ccnc2)cc1
2.1 µM (≈ 0.751 µg/mL) | CC(=O)n1c2ccccc2c2cc(NC(=O)CCc3ccncc3)ccc21
1.9 µM (≈ 0.86 µg/mL) | COc1cc2ncnc(Nc3cc(NC(=O)c4ccccc4)c(Cl)cc3F)c2cc1OC
8.9 µM (≈ 4.52 µg/mL) | C[C@@H](CN(C)C(=O)CO)Oc1cccc2ncnc(Nc3ccc(OCc4ccccn4)c(Cl)c3)c12
0.7 µM (≈ 0.297 µg/mL) | COCCNS(=O)(=O)c1ccc(Nc2nccc(-c3cnc4ccccn34)n2)cc1
331 µM (≈ 72.3 µg/mL) | Cc1csc(NC(=O)c2ccccc2)n1
9.3 µM (≈ 3.17 µg/mL) | Cc1cc(C)c(N2C(=O)CC(Sc3ccccc3N)C2=O)c(C)c1 (centres undefined)
537 µM (≈ 109 µg/mL) | CCCNc1nc2ccccc2c(=O)[nH]1
363 µM (≈ 171 µg/mL) | N#Cc1ccccc1COc1cc(OCCCN2CCCC2)ccc1C(=O)Nc1cccc(O)c1
0.9 µM (≈ 0.364 µg/mL) | O=S(=O)(c1ccc(F)cc1)N1CCCN(c2nccc(C(F)(F)F)n2)CC1
43.7 µM (≈ 17.3 µg/mL) | CC1(C)C(=O)N(c2ccc(SC(F)(F)F)cc2)C(=O)N1Cc1ccncc1
0.8 µM (≈ 0.305 µg/mL) | CC#CC(=O)Nc1ccc2ncnc(Nc3cccc(Br)c3)c2c1
